For data set [1] the following is noted: 25 G IV bolus over 3-5 minutes, cited from earlier work.
Data set [2] has as its system rabbit fetus. Particulars: cited from earlier work.
Data set [3] concerns severely growth restricted fetus (fetal IUGR). As to the kind of experiment: Clinical case study: severe fetal IUGR treated with maternal IV hypertonic D-glucose bolus. Type of data set: in vivo, human. The source says: At the outset, it is relevant to describe a clinical case study of successfully treating a severe case of fetal IUGR, during the years 1983-84, by the Author Inventor as a practicing ob/gyn. in India, as it is the basis for this writing of significant depth that aided the author inventor decades later to fully comprehend what was once successfully treated, but was only incompletely understood at that time.
They were well nourished and was from good socioeconomic background, and there were no obvious etiological factors, that could be accounted for the identified fetal IUGR. After monitoring the growth of the fetus by assessing fundal height (a clinical norm of fetal measure in the past) for 3-4 more weeks, it was confirmed that the uterine size was not progressing, and that the patient had severely growth restricted fetus. […] The patient had more frequent pre-natal follow ups, and the treatment was diligently continued with increments, as also the patient was admirably cooperative. Nearing term, they were delivered by elective cesarean section.
The observed fetal growth restriction was undoubtedly severe, but with mere hypertonic intravenous D-glucose treatment and no other (except for standard doses of prenatal vitamins and minerals), the […] delivered an AGA baby, who obviously had caught up with standard growth curve, as though glucose supplement alone, and nothing else was needed.

Data set [4] relates to Human Umbilical Vessel Endothelial cells (HUVEC). Particulars: cited from earlier work.
For data set [5], the system named is all tissues types. Particulars: cited from earlier work.

Like-named read-outs stand apart in the source and are kept apart here.

These results are taken from US9555052B2, “Intrauterine fetal growth restriction—the biochemical rationale of treatment modalities including extraperitoneal transamniotic fetal supplements” (priority 2003, dated 2017).

In the case of `O=C[C@H](O)[C@@H](O)[C@H](O)[C@H](O)CO` [D-glucose], in data set [1] (at 15 minutes), the “blood glucose level (peak)” value is on record as 175 mg %. Besides, the figures for the blood glucose level in data set [1] (at 30 minutes), in data set [1] (at 1 hour) and in data set [1] (during the second hour) were 125 mg %, 75 mg % and 70 mg %, respectively. In addition, in data set [2] (Flake et al, natural runt rabbit fetus, solutions alone or in combination), the “reversal of growth restriction” value is on record as “did not reverse growth restriction”. Further, in data set [2] (Mulvihill et al 1985, pregnant rabbit models, transamniotic), the fetal weight entry is reported as “increase in fetal weight”. Besides, the fetal growth response entry in data set [3] (20% IV bolus 50 cc twice daily to the parent, observed in 2-3 weeks) was “undoubted and immediate catch up of fetal growth”. The “birth weight for gestational age” value in data set [3] (at delivery nearing term) is “appropriate for the gestational age (AGA)”. Further, the “Apgar score of the baby” value in data set [3] (elective cesarean nearing term after continued treatment with increments) was 10. Besides, the “adverse effects in the mother due to induced maternal hyperglycemia” value in data set [3] (throughout gestation) is on record as “No adverse effects”. In data set [4], the CGMP accumulation entry is recorded as “increased”. The L-Arginine transport result in data set [4] is recorded as “increased”.
For `NCCCC[C@@H](N)C(=O)O` [D-lysine], in data set [5] (all tissues types), the neovascular growth entry was “induce neovascular growth”.
For the compound `NCCCC[C@H](N)C(=O)O` [monomeric lysine, lysine], the “biomass (cell population) expansion” value in data set [5] (compared to other physicochemical means) is on record as “expand biomass (cell population) at the least possible time”.
Consider insulin, for which, in data set [4], the CGMP accumulation result was “increased” and the L-Arginine transport result is recorded as “increased”.
